Assay results taken from US8785486B2, “Imidazo[1,2-A]pyridine derivatives and their use as positive allosteric modulators of mGluR2 receptors” (Janssen Pharmaceuticals, Inc., priority 2007, dated 2014).

Molecular target: T1, human mGluR2 receptor (Homo sapiens, UniProt Q14416)
T1 construct: expressed in transfected cells; host or cells: CHO cells
Test: [35S]GTPγS binding assay (PAM assay) using membranes from cells transfected with the human mGluR2 receptor
Type: biochemical
Conditions: membranes of CHO cells with human mGluR2, glutamate at predetermined EC25 concentration, averages of duplicate values of 11-concentration response curves; for EC50: read-out: GTPγS - hR2 PAM pEC50 (converted)
Description: The [^35S]GTPγS binding assay is a functional membrane-based assay used to study G-protein coupled receptor (GPCR) function whereby incorporation of a non-hydrolysable form of GTP, [^35S]GTPγS (guanosine 5′-triphosphate, labelled with […] ^35S), is measured.
CHO-cells were cultured to pre-confluence and stimulated with 5 mM butyrate for 24 hours, prior to washing in PBS, and then collection by scraping in homogenisation buffer (50 mM Tris-HCl buffer, pH 7.4, 4° C.). Cell lysates were homogenized briefly (15 s) using an ultra-turrax homogenizer. The homogenate was centrifuged at 23 500×g for 10 minutes and the supernatant discarded. The pellet was resuspended in 5 mM Tris-HCl, pH 7.4 and centrifuged again (30 000×g, 20 min, 4° C.). The final pellet was resuspended in 50 mM HEPES, pH 7.4 and stored at −80° C. in appropriate aliquots before use. Protein concentration was determined by the Bradford method (Bio-Rad, USA) with bovine serum albumin as standard.
Measurement of mGluR2 positive allosteric modulatory activity of test compounds in membranes containing human mGluR2 was performed using frozen membranes that were thawed and briefly homogenised prior to pre-incubation in 96-well microplates (15 μg/assay well, 30 minutes, 30° C.) in assay buffer (50 mM HEPES pH 7.4, 100 mM NaCl, 3 mM MgCl2, 50 μM GDP, 10 μg/ml saponin,) with increasing concentrations of positive allosteric modulator (from 0.3 nM to 50 μM) and either a minimal pre-determined concentration of glutamate (PAM assay), or no added glutamate. […] After addition of [^35S]GTPγS (0.1 nM, f.c.) to achieve a total reaction volume of 200 μl, microplates were shaken briefly and further incubated to allow [^35S]GTPγS incorporation on activation (30 minutes, 30° C.). The reaction was stopped by rapid vacuum filtration over glass-fibre filter plates (Unifilter 96-well GF/B filter plates, Perkin-Elmer, Downers Grove, USA) microplate using a 96-well plate cell harvester (Filtermate, Perkin-Elmer, USA), and then by washing three times with 300 μl of ice-cold wash buffer (Na2PO4.2H2O 10 mM, NaH2PO4.H2O 10 mM, pH=7.4). Filters were then air-dried, and 40 μl of liquid scintillation cocktail (Microscint-O) was added to each well, and membrane-bound [^35S]GTPγS was measured in a 96-well scintillation plate reader (Top-Count, Perkin-Elmer, USA). Non-specific [^35S]GTPγS binding is determined in the presence of cold 10 μM GTP. Each curve was performed at least once using duplicate sample per data point and at 11 concentrations.
The concentration-response curves of representative compounds of the present invention in the presence of added EC25 of mGluR2 agonist glutamate to determine positive allosteric modulation (PAM), were generated using the Prism GraphPad software (Graph Pad Inc, San Diego, USA). The curves were fitted to a four-parameter logistic equation (Y=Bottom+(Top-Bottom)/(1+10^((Log EC50−X)*Hill Slope) allowing determination of EC50 values. The EC50 is the concentration of a compound that causes a half-maximal potentiation of the glutamate response. This is calculated by subtracting the maximal responses of glutamate in presence of a fully saturating concentration of a positive allosteric modulator from the response of glutamate in absence of a positive allosteric modulator. The concentration producing the half-maximal effect is then calculated as EC50

T1 sequence (Q14416 19-872): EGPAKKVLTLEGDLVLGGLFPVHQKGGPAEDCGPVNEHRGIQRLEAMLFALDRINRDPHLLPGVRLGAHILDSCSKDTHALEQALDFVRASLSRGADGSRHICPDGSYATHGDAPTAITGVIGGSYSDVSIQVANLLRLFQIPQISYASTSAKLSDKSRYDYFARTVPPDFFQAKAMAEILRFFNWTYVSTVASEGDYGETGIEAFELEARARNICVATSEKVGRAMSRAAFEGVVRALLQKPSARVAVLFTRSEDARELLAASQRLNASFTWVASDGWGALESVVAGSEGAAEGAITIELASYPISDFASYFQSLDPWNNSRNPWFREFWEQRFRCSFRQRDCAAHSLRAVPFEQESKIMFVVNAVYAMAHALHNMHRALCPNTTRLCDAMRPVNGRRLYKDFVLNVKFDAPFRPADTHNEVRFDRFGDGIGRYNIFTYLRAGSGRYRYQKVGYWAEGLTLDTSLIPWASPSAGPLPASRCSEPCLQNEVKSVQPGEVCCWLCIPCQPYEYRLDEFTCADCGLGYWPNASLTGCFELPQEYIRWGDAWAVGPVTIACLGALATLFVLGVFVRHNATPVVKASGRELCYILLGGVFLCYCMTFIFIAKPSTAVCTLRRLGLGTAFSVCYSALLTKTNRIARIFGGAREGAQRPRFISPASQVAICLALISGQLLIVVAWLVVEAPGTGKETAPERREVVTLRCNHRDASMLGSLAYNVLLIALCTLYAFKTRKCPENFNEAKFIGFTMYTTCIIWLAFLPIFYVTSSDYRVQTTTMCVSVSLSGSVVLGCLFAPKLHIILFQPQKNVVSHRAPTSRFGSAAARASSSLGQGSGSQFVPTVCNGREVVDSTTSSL

EC50 [nM]	GTPγS - hR2 PAM pEC50	SMILES
513		N#Cc1c(CN2CCC(c3ccccc3)CC2)ccn2c(-c3ccccc3)cnc12 [Example 1, 3-Phenyl-7-(4-phenyl-piperidin-1-ylmethyl)-imidazo[1,2-a]pyridine-8-carbonitrile]
123		N#Cc1c(N2CCC(c3ccccc3)CC2)ccn2c(CC(F)(F)F)cnc12 [Example 3, 7-(4-Phenyl-piperidin-1-yl)-3-(2,2,2-trifluoro-ethyl)-imidazo[1,2-a]pyridine-8-carbonitrile]
692		Cc1cc(Oc2ccc(-c3ccn4c(CC(F)(F)F)cnc4c3C#N)c(F)c2)ccn1 [Example 4, 7-[2-Fluoro-4-(2-methyl-pyridin-4-yloxy)-phenyl]-3-(2,2,2-trifluoro-ethyl)-imidazo[1,2-a]pyridine-8-carbonitrile]
178		N#Cc1c(N2CCC(c3ccccc3)CC2)ccn2c(Cc3ccccc3)cnc12 [Example 7]
398		N#Cc1c(N2CCC(c3ccccc3)CC2)ccn2c(-c3ccccc3)cnc12 [Example 10]
589		Cc1cc(Oc2ccc(-c3ccn4c(CC(F)(F)F)cnc4c3C#N)cc2)ccn1 [Example 13]
1120		Cc1cc(Oc2ccc(-c3ccn4c(CC(F)(F)F)cnc4c3C#N)cc2F)ccn1 [Example 17]
1320		CCc1cnc2c(C#N)c(-c3ccc(Oc4ccnc(C)c4)cc3)ccn12 [Example 18]
295		N#Cc1c(CN2CCC(c3ccccc3)CC2)ccn2c(CC(F)(F)F)cnc12 [Example 27]
776		N#Cc1c(N2CCC(c3ccccc3)CC2)ccn2c(C(F)(F)F)cnc12 [Example 29, 7-(4-Phenyl-piperidin-1-yl)-3-trifluoromethyl-imidazo[1,2-a]pyridine-8-carbonitrile]
1380		N#Cc1c(CN2CCN(c3ccc(F)cc3F)CC2)ccn2c(CC(F)(F)F)cnc12 [Example 39]
562		FC(F)(F)Cc1cnc2c(Cl)c(CN3CCC(c4ccccc4)CC3)ccn12 [Example 42]
676		N#Cc1c(N2CCC(c3ccccc3)CC2)ccn2c(C3CC3)cnc12 [Example 49]
275		N#Cc1c(N2CCN(c3ccc(F)cc3F)CC2)ccn2c(CC(F)(F)F)cnc12 [Example 52]
1350		Cc1cccnc1N1CCN(c2ccn3c(CC(F)(F)F)cnc3c2C#N)CC1 [Example 53]
	5.96	N#Cc1c(N2CCN(c3ncccn3)CC2)ccn2c(CCC3CC3)cnc12 [Example 55]
646		Cc1cnc(N2CCN(c3ccn4c(CC(F)(F)F)cnc4c3C#N)CC2)nc1 [Example 56]
479		N#Cc1c(N2CCC(c3ccc(N4CCOCC4)cc3)CC2)ccn2c(CC(F)(F)F)cnc12 [Example 57]
372		CC(O)c1ccc(C2CCN(c3ccn4c(CC(F)(F)F)cnc4c3C#N)CC2)cc1 (stereo not shown) [Example 59]
525		Cc1ccnc(N2CCN(c3ccn4c(CC(F)(F)F)cnc4c3C#N)CC2)n1 [Example 60]
37.2		COc1c(F)cccc1C1CCN(c2ccn3c(CC(F)(F)F)cnc3c2C#N)CC1 [Example 61, 7-[4-(3-Fluoro-2-methoxy-phenyl)-piperidin-1-yl]-3-(2,2,2-trifluoro-ethyl)-imidazo[1,2-a]pyridine-8-carbonitrile]
9.77		COc1cccc(F)c1C1CCN(c2ccn3c(CC(F)(F)F)cnc3c2C#N)CC1 [Example 69]
269		Fc1ccc(Oc2ccc(-c3ccn4c(CC(F)(F)F)cnc4c3Cl)cc2)cc1 [Example 70]
214		N#Cc1c(-c2ccc(C(F)(F)c3ccccc3)cc2)ccn2c(CC(F)(F)F)cnc12 [Example 72]
269		N#Cc1c(-c2ccc(Oc3ccccc3)c(F)c2)ccn2c(CC(F)(F)F)cnc12 [Example 76]
676		N#Cc1c(-c2ccc(Oc3ccc(C(=O)O)cc3)cc2)ccn2c(CC(F)(F)F)cnc12 [Example 83]

EC50 [nM]	GTPγS - hR2 PAM pEC50	SMILES
302		N#Cc1c(-c2ccc(OC3CCCC3)c(Cl)c2)ccn2c(CC(F)(F)F)cnc12 [Example 84]
3160		CC(C)(O)COc1ccc(-c2ccn3c(CC(F)(F)F)cnc3c2C#N)cc1Cl [Example 86]
309		CC(C)Oc1ccc(-c2ccn3c(CC(F)(F)F)cnc3c2C#N)cc1Cl [Example 87]
	6.35	CC(C)(C)c1ccc(-c2ccn3c(CC(F)(F)F)cnc3c2C#N)cc1 [Example 88]
676		N#Cc1c(-c2ccc(OC3CCOCC3)c(Cl)c2)ccn2c(CC(F)(F)F)cnc12 [Example 90]
186		N#Cc1c(-c2ccc(N[C@H]3CC[C@@H](O)CC3)c(Cl)c2)ccn2c(CC(F)(F)F)cnc12 [Example 95, (cis)-7-[3-Chloro-4-(4-hydroxy-cyclohexylamino)-phenyl]-3-(2,2,2-trifluoro-ethyl)-imidazo[1,2-a]pyridine-8-carbonitrile]
603		C[C@]1(O)CC[C@H](Oc2ccc(-c3ccn4c(CC(F)(F)F)cnc4c3C#N)cc2Cl)CC1 [Example 97]
490		CC1(O)CCC(Nc2ccc(-c3ccn4c(CC(F)(F)F)cnc4c3Cl)cc2Cl)CC1 (stereo not shown) [Example 98, 4-{2-Chloro-4-[8-chloro-3-(2,2,2-trifluoro-ethyl)-imidazo[1,2-a]pyridin-7-yl]-phenylamino}-1-methyl-cyclohexanol]
851		N#Cc1c(-c2ccc(O[C@H]3CC[C@H](O)CC3)c(Cl)c2)ccn2c(CC(F)(F)F)cnc12 [Example 102]
1050		C[C@]1(O)CC[C@@H](Oc2ccc(-c3ccn4c(CC(F)(F)F)cnc4c3C#N)cc2Cl)CC1 [Example 104]
	6.85	N#Cc1c(-c2ccc(NC3CC3)c(Cl)c2)ccn2c(CC(F)(F)F)cnc12 [Example 105, 7-(3-Chloro-4-cyclopropylamino-phenyl)-3-(2,2,2-trifluoro-ethyl)-imidazo[1,2-a]pyridine-8-carbonitrile]
6310		N#Cc1c(-c2ccc(NC3CC3)c(F)c2)ccn2c(CC(F)(F)F)cnc12 [Example 106]
	6.63	N#Cc1c(-c2ccc(N3CCCCC3)cc2)ccn2c(CC(F)(F)F)cnc12 [Example 107]
457		N#Cc1c(-c2ccc(N3CCCC3)c(Cl)c2)ccn2c(CC(F)(F)F)cnc12 [Example 108]
275		FC(F)(F)Cc1cnc2c(Cl)c(-c3ccc(N4CCCCC4)cc3)ccn12 [Example 109]
	5.67	N#Cc1c(-c2ccc(N3CCOCC3)c(Cl)c2)ccn2c(CC(F)(F)F)cnc12 [Example 110]
1050		N#Cc1c(-c2ccc(N3CCC(O)CC3)cc2)ccn2c(CC(F)(F)F)cnc12 [Example 111]
155		N#Cc1c(-c2ccc(COc3ccccc3F)cc2)ccn2c(CC(F)(F)F)cnc12 [Example 113]
692		N#Cc1c(N2CCc3c([nH]c4ccccc34)C2)ccn2c(CC(F)(F)F)cnc12 [Example 117]
63.1		N#Cc1c(N2CCC(c3ccccc3CCF)CC2)ccn2c(CC(F)(F)F)cnc12 [Example 118]
57.5		N#Cc1c(N2CCC(c3cccc(F)c3OCCF)CC2)ccn2c(CC(F)(F)F)cnc12 [Example 119]
	6.80	N#Cc1c(-c2ccc(OCc3ccccc3)cc2)ccn2c(CC(F)(F)F)cnc12 [Example 120]
2090		N#Cc1c(N2CCC(c3ccccc3)(N3CCOCC3)CC2)ccn2c(CC(F)(F)F)cnc12 [Example 121]
550		N#Cc1c(N2CCC([C@H]3CC[C@H](O)CC3)CC2)ccn2c(CC(F)(F)F)cnc12 [Example 122]
794		FC(F)(F)Cc1cnc2c(Cl)c(CN3CCC4(CC3)COc3ccccc3O4)ccn12 [Example 124]
1780		FC(F)(F)Cc1cnc2c(Cl)c(N3CCC4(CC3)CN(c3ccccc3)C4)ccn12 [Example 125]
